# Source: patent US12685490B2 (The Board of Trustees of the Leland Stanford Junior …, priority 2020, dated 2026)
# Read-outs that look alike come from different tables or passages of the source. Residues, ends and D or L forms follow the SMILES beside them.
# What was measured:
# [1] = tested on: IAPP cytotoxicity in RIN5fm cells; assay: MTT reduction assay: formation of β-cell damaging IAPP assemblies; assay type: cell-based, rat
# Procedure: (§1) Briefly, RIN5fm cells were cultured and plated in 96-well plates as described. Solutions of IAPP alone and its mixtures with peptides were aged in ThT assay buffer as described under “ThT binding assays”. At the indicated incubation time points (24 h or 7 days) aliquots were diluted with cell culture medium and added to the cells. Following incubation with the cells for ~20 h (37° C., humified atmosphere containing 5% CO2), cell damage was verified by the MTT reduction assay.
# Fluos-IAPP = target: T1, Fluos-IAPP (Homo sapiens, UniProt P10997); assay: Fluorescence spectroscopic titrations; assay type: binding; conditions: for Kd: pH 7.4, mean (SD) of 3 binding curves, read-out: app. Kd
# T1 construct: made in house; host or cells: chemical synthesis
# T1 sequence (P10997 34-70 limits assumed): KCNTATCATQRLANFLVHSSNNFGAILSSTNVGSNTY
# Procedure: Fluorescence spectroscopic titration studies were performed with a JASCO FP-6500 fluorescence spectrophotometer using a previously described experimental protocol. Briefly, excitation was at 492 nm and emission spectra were recorded between 500 and 600 nm. […] For all experiments, freshly made stocks of peptides and their fluorescently labeled analogs in HFIP were used. Measurements were performed in 10 mM sodium phosphate buffer (pH 7.4) containing 1% HFIP within 2-5 min following solution preparation at room temperature. Of note, under these conditions freshly made Fluos-IAPP (5 nM) solutions consist mostly of monomers. App. Kds were calculated using 1/1 binding models as previously described and are means (±SD) of three binding curves.
# IAPP [2] = target: T2, IAPP (Homo sapiens, UniProt P10997); assay: Thioflavin T (ThT) binding assay of IAPP fibrillogenesis; assay type: biochemical; conditions: for effect on IAPP amyloid self-assembly (fibrillogenesis): IAPP/peptide 1/1
# T2 construct: made in house; host or cells: chemical synthesis (Fmoc solid-phase, Rink resin)
# T2 sequence (P10997 34-70 limits assumed): T1 sequence (P10997 34-70 limits assumed)
# Procedure: Of note, an incubation of LL-37 alone was also included. At the indicated time points aliquots were mixed with the ThT solution consisting of 20 μM ThT in 0.05 M glycine/NaOH (pH 8.5) and binding was determined by measuring fluorescence emission at 486 nm upon excitation at 450 nm using a Multilabel reader VictorX3 (Perkin Elmer Life Sciences). […] An aliquot of a solution consisting mostly of IAPP fibrils (fIAPP) based on ThT binding and TEM (FIGS. 18-19) (7 days aged IAPP (16.5 μM) made as above) was added to the incubations resulting in a final seed (fIAPP) concentration of 1.65 μM. Incubations of (unseeded) IAPP alone (16.5 μM) and of 10% fIAPP alone were included as controls. ThT binding was determined at the indicated time points as above. […] Solutions containing (unseeded) IAPP alone (16.5 μM), IAPP seeded with fIAPP (10%), and IAPP seeded with LL-37-treated fIAPP (10%) were made in ThT assay buffer and kinetics of fibrillogenesis were determined by the ThT binding assay as described above.
# IAPP [3] = target: T2, IAPP; assay: Cross-linking, NuPAGE and Western blot; conditions: IAPP 30 μM, 1/1, pH 7.4
# Procedure: Cross-linking studies were preformed using a previously developed assay system. […] Solutions were cross-linked using 25% aqueous glutaraldehyde (Sigma-Aldrich) and 10% aqueous trichloroacetic acid (TCA) was used to precipitate cross-linked peptides. Pellets were dissolved in reducing NuPAGE sample buffer, boiled for 5 min, and subjected to NuPAGE electrophoresis in 4-12% Bis-Tris gels with MES running buffer (Invitrogen). The same volume of each solution (same IAPP amount) was loaded in all lanes. Peptides were blotted using a XCell II Blot Module blotting system (Invitrogen).
# IAPP [4] = target: T2, IAPP; assay: Far-UV CD spectroscopy of IAPP conformation and misfolding; conditions: 1/1, 5 μM each, pH 7.4
# Procedure: Far-UV CD studies were performed using a Jasco 715 spectropolarimeter. Spectra were recorded at room temperature between 195 and 250 nm, at 0.1 nm intervals, and with a response time of 1 second. Each spectrum is an average of 3 spectra. All CD studies were performed in aqueous 10 mM sodium phosphate buffer (pH 7.4) containing 1% HFIP (CD assay buffer) at room temperature; this assay system has been earlier developed and found to be suitable for following kinetics of IAPP (5 μM) misfolding into β-sheets and amyloid fibrils alone or in the presence of inhibitors. Briefly, peptide stocks in HFIP were freshly made (4° C.), diluted with assay buffer (room temperature) at the indicated concentrations within the cuvette, and following gentle mixing spectra were measured immediately or at the indicated incubation time points. […] The CD spectrum of IAPP at the incubation time point of 24 h (endpoint) was measured after gentle mixing to re-dissolve precipitated aggregates. The CD spectrum of the buffer was always subtracted from the CD spectra of the peptide solutions.
# RIN5fm cells = assay type: cell-based, rat
# Procedure: as §1
# [5] = tested on: autoimmune diabetes in NOD mice; conditions: prediabetic NOD mice; cited from earlier work
# [6] = target: T3, IAPP monomers and fibrils (Homo sapiens, UniProt P10997); assay: Dot blot analysis; assay type: binding; conditions: FAM-LL-37 200 nM, IAPP 40 μg spotted
# T3 construct: made in house; host or cells: chemical synthesis (Fmoc solid-phase, Rink resin)
# T3 sequence (P10997 34-70 limits assumed): T1 sequence (P10997 34-70 limits assumed)
# Procedure: IAPP monomers or IAPP fibrils (fIAPP) containing solutions (different amounts up to 40 μg) were spotted onto a nitrocellulose membrane. These solutions were prepared by incubating an IAPP solution (1 mg/ml) in ThT assay buffer for 0 h (“monomers”) or 24 h (“fibrils”); the presence of fibrils was confirmed by ThT binding and TEM (not shown). The membrane was washed with TBSn (20 mM Tris/HCl, 150 mM NaCl and 0.05% Tween-20), blocked with 5% milk in TBSn overnight at 10° C., and washed again with TBSn. […] Following washings with incubation buffer and TBSn, bound FAM-LL-37 was visualized with a LAS-4000mini instrument (Fujifilm). Of note, glucagon fibrils were spotted as well to control for the specificity of the observed strong binding of FAM-LL-37 to fIAPP (not shown). Glucagon fibrils were made by incubating glucagon in 10 mM HCl (2 μg/μl) (10 days) followed by neutralization with 10 mM NaOH; ThT binding and TEM confirmed fibril formation (not shown). The ThT buffer alone was also spotted to control for NSB. In addition, to control for the interference of fibril autofluorescence, a membrane containing spotted fIAPP which had been incubated in buffer alone w/o FAM-LL-37 was included in each assay; in general, fIAPP autofluorescence contributed up to 25% of the total amount of fluorescence observed in fIAPP bound to FAM-LL-37.
# [7] = aged IAPP/peptide mixtures 1/1, RIN5fm cells
compound,measurement,setting,value
CC[C@H](C)[C@H](NC(=O)[C@H](CCCCN)NC(=O)[C@H](CCC(=O)O)NC(=O)[C@H](CCCCN)NC(=O)[C@H](CO)NC(=O)[C@H](CCCCN)NC(=O)[C@H](CCCNC(=N)N)NC(=O)[C@H](Cc1ccccc1)NC(=O)[C@H](Cc1ccccc1)NC(=O)[C@H](CC(=O)O)NC(=O)CNC(=O)[C@H](CC(C)C)NC(=O)[C@@H](N)CC(C)C)C(=O)NCC(=O)O [LL-37(1-14)] (H-LLGDFFRKSKEKIG-OH; N-terminus assumed),effect on formation of cytotoxic IAPP assemblies (cell-damaging effects),[1]; [7],unable to interfere
same,Kd,Fluos-IAPP; Fluos-IAPP 5 nM,2540 nM
same,weaker binding to Fluos-IAPP,Fluos-IAPP; app. Kd comparison,~ 30 fold
same,effect on IAPP amyloid self-assembly (fibrillogenesis),IAPP [2]; IAPP 16.5 μM,unable to interfere
CC[C@H](C)[C@H](NC(=O)[C@H](CCCNC(=N)N)NC(=O)[C@H](CCC(N)=O)NC(=O)[C@@H](NC(=O)[C@@H](NC(=O)[C@H](CCCNC(=N)N)NC(=O)[C@H](CCCCN)NC(=O)[C@H](Cc1ccccc1)NC(=O)[C@H](CCC(=O)O)NC(=O)[C@@H](N)CCCCN)[C@@H](C)CC)C(C)C)C(=O)N[C@@H](CCCCN)C(=O)N[C@@H](CC(=O)O)C(=O)N[C@@H](Cc1ccccc1)C(=O)N[C@@H](CC(C)C)C(=O)N[C@@H](CCCNC(=N)N)C(=O)N[C@@H](CC(N)=O)C(=O)N[C@@H](CC(C)C)C(=O)N[C@H](C(=O)N1CCC[C@H]1C(=O)N[C@@H](CCCNC(=N)N)C(=O)N[C@H](C(=O)N[C@@H](CCC(=O)O)C(=O)N[C@@H](CO)C(=O)O)[C@@H](C)O)C(C)C [LL-37(15-37)] (H-KEFKRIVQRIKDFLRNLVPRTES-OH; N-terminus assumed),effect on formation of cytotoxic IAPP assemblies (cell-damaging effects),[1]; [7],unable to interfere
same,Kd,Fluos-IAPP; Fluos-IAPP 5 nM,31.9 nM
same,effect on IAPP amyloid self-assembly (fibrillogenesis),IAPP [2]; IAPP 16.5 μM,unable to interfere
CC[C@H](C)[C@H](NC(=O)[C@H](CCCCN)NC(=O)[C@H](CCC(=O)O)NC(=O)[C@H](CCCCN)NC(=O)[C@H](CO)NC(=O)[C@H](CCCCN)NC(=O)[C@H](CCCNC(=N)N)NC(=O)[C@H](Cc1ccccc1)NC(=O)[C@H](Cc1ccccc1)NC(=O)[C@H](CC(=O)O)NC(=O)CNC(=O)[C@H](CC(C)C)NC(=O)[C@@H](N)CC(C)C)C(=O)NCC(=O)N[C@@H](CCCCN)C(=O)N[C@@H](CCC(=O)O)C(=O)N[C@@H](Cc1ccccc1)C(=O)N[C@@H](CCCCN)C(=O)N[C@@H](CCCNC(=N)N)C(=O)N[C@H](C(=O)N[C@H](C(=O)N[C@@H](CCC(N)=O)C(=O)N[C@@H](CCCNC(=N)N)C(=O)N[C@H](C(=O)N[C@@H](CCCCN)C(=O)N[C@@H](CC(=O)O)C(=O)N[C@@H](Cc1ccccc1)C(=O)N[C@@H](CC(C)C)C(=O)N[C@@H](CCCNC(=N)N)C(=O)N[C@@H](CC(N)=O)C(=O)N[C@@H](CC(C)C)C(=O)N[C@H](C(=O)N1CCC[C@H]1C(=O)N[C@@H](CCCNC(=N)N)C(=O)N[C@H](C(=O)N[C@@H](CCC(=O)O)C(=O)N[C@@H](CO)C(=O)O)[C@@H](C)O)C(C)C)[C@@H](C)CC)C(C)C)[C@@H](C)CC [LL-37],effect on formation of cytotoxic IAPP assemblies (cell-damaging effects),[1],effectively suppressed formation of cytotoxic IAPP assemblies
same,IC50,[1]; rat,17 nM
same,hetero-assemblies with IAPP by cross-linking,IAPP [3],formation of IAPP-LL-37 hetero-tetramers
same,increase of Fluos-IAPP fluorescence emission,"Fluos-IAPP; Fluos-IAPP 5 nM, 100-fold molar excess of LL-37",322%
same,Kd,Fluos-IAPP; Fluos-IAPP 5 nM,88.1 nM
same,effect on IAPP conformation / misfolding,IAPP [4],strong time-dependent increase of random coil contents and no precipitation occurred
same,cytotoxicity of peptide alone,RIN5fm cells,not cytotoxic
same,effect on IAPP amyloid self-assembly (fibrillogenesis),IAPP [2]; IAPP 16.5 μM,effectively suppressed IAPP amyloid self-assembly
same,effect on seeding of IAPP fibrillogenesis by fIAPP (10%),"IAPP [2]; IAPP 16.5 μM, LL-37 1/1, 10% fIAPP seeds",fully suppressed
same,seeding ability of fIAPP after treatment with peptide,"IAPP [2]; fIAPP incubated with LL-37 (10-fold) for 24 h, used as 10% seeds",converts them into seeding incompetent assemblies
"CC[C@H](C)[C@H](NC(=O)[C@H](CCCCN)NC(=O)[C@H](CO)NC(=O)[C@H](Cc1ccccc1)NC(=O)[C@H](CCC(=O)O)NC(=O)[C@H](Cc1ccccc1)NC(=O)[C@H](CCCNC(=N)N)NC(=O)[C@H](CC(C)C)NC(=O)[C@H](CCCCN)NC(=O)[C@H](CC(C)C)NC(=O)CN)C(=O)N[C@@H](CCCCN)C(=O)NCC(=O)N[C@@H](CCC(=O)O)C(=O)N[C@@H](Cc1ccccc1)C(=O)N[C@@H](CC(C)C)C(=O)N[C@@H](CCCCN)C(=O)N[C@H](C(=O)N1CCC[C@H]1C(=O)N[C@@H](CCC(=O)O)C(=O)N[C@H](C(=O)N[C@@H](CCCNC(=N)N)C(=O)N[C@@H](Cc1ccccc1)C(=O)N[C@@H](CCCNC(=N)N)C(=O)N[C@@H](CC(=O)O)C(=O)N[C@H](C(=O)N[C@@H](CCCCN)C(=O)N[C@@H](CC(C)C)C(=O)N[C@@H](CCCCN)C(=O)N[C@@H](CC(=O)O)C(=O)N[C@@H](CC(N)=O)C(=O)N[C@@H](CCCNC(=N)N)C(=O)N[C@H](C(=O)N[C@@H](CO)C(=O)N[C@H](C(=O)N[C@@H](CCC(N)=O)C(=O)N[C@@H](CCCNC(=N)N)C(=O)O)C(C)C)[C@@H](C)CC)[C@@H](C)CC)C(C)C)[C@@H](C)O [scrLL-37, reference compound] (H-GLKLRFEFSKIKGEFLKTPEVRFRDIKLKDNRISVQR-OH)",effect on IAPP cytotoxicity,"[1]; up to 10-fold molar excess of peptide, 7 days aged, RIN5fm cells",unable to inhibit
CRAMP,effect on autoimmune diabetes,[5],dampening the incidence of autoimmune diabetes
FAM-LL-37: N-amino-terminal fluorescein labeled LL-37 with a 6-aminohexanoic acid spacer between FAM and the N-terminus,binding to IAPP monomers and fibrils,[6],bound both IAPP fibrils and monomers
